The data set is described as follows: gradient 5% acetonitrile 3 min, to 50% in 2 min, to 85% in 15 min, held 3 min, 100 µL/min. As to conditions: column: Zorbax Extend-C18 2.1 x 50 mm; eluents: water / acetonitrile, 0.1% formic acid. Summed up:
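Pure standards were run in mixtures of ~100 molecules by HPLC coupled to a quadrupole time-of-flight mass spectrometer. The column was a Zorbax Extend-C18 (2.1 × 50 mm, 1.8 μm) at 100 μL/min, with water and acetonitrile each containing 0.1% formic acid, in positive and negative ionization mode. Dead and dwell volumes were 40 μL and 900 μL. Retention time was taken from computationally picked adduct peaks, each manually inspected, with data collected over 3 months.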
As for `O=C(c1cc(Sc2cccc(Cl)c2)nc2ccccc12)N1CCN(c2ccccn2)CC1`, the RP-LC retention time was 789 s.
The value for `COc1ccc(-c2nc(NC(=O)c3cccnc3)sc2C)cc1` was 800 s.
In the case of `COCCN1C(=O)Cc2ccccc2C1C(=O)NCc1ccccc1` (centres undefined) it was 684 s; in that of `CCOc1ccc(NC(=O)CSc2nccc(N3CCN(c4cc(C)ccc4C)CC3)n2)cc1`, 928 s; in that of `Cc1ccc(-n2nc(C)c3c(C(F)(F)F)cc(OCC(=O)NCc4ccco4)nc32)cc1`, 1220 s.
In the case of `Cc1ccc(Nc2nc(C(=O)NCc3cccnc3)nc3ccccc23)cc1` it was 609 s; in that of `O=C1NC2(CCN(C(=O)c3cccc(Cl)c3)CC2)N=C1c1cccc(F)c1`, 888 s.
`COc1cc(NC(=O)Nc2nccn(-c3cc(C)cc(C)c3)c2=O)cc(OC)c1` came in with an RP-LC retention time of 913 s.
The value for `O=C1COc2ccc(-c3csc(NC(=O)c4ccc(F)cc4)n3)cc2N1` was 838 s.
The value for `CCOC(=O)c1nn(-c2ccc(C)cc2)c(=O)cc1NC(=O)c1cc(Cl)ccc1OC` was 1140 s; that for `Cc1noc(C)c1CC(=O)N1CC[C@@H]2CN(S(C)(=O)=O)[C@@H]2C1` was 608 s; that for `Cc1ccc(-c2nnc(SCC(=O)Nc3cccc(Cl)c3C)o2)cc1` was 1020 s.
`Cc1nc(-c2cc(S(=O)(=O)N3CCC(C(=O)NC4CCCCCC4)CC3)c(C)s2)no1` came in with an RP-LC retention time of 707 s.
In the case of `CCn1cc(-c2nc(C)c(C(=O)N3CCN(c4ccccc4)CC3)s2)c2cccnc21` it was 994 s; in that of `CCOc1ccc(C2Cn3nnc(-c4nc(-c5cccc(C)c5)no4)c3CO2)cc1` (centres undefined), 1270 s; in that of `COc1ccc(OC)c(NC(=O)Cn2cccc2-c2nnc(-c3ccccc3)o2)c1`, 1020 s.
The compound `CCN1C(=O)COc2cc(-c3noc(C(=O)NC4CCCC4)n3)ccc21` gave an RP-LC retention time of 936 s.
The value for `COc1ccc(C2C(=O)N(C3CCC(C)CC3)CC(=O)N2Cc2cccs2)cc1OC` (centres undefined) was 961 s.
In the case of `CN(C(=O)Cn1cnc2c(-c3ccccc3)csc2c1=O)c1ccc(F)cc1` it was 938 s.
As for `COCCCNC(=O)C1c2ccccc2C(=O)N1Cc1ccccc1F` (centres undefined), the RP-LC retention time is 708 s.
In the case of `Cc1ccccc1CSc1nnc2c(S(=O)(=O)N3CCCC3)cccn12` it was 861 s; in that of `CC(C)N1C(=O)c2cccnc2Sc2cc(NC(=O)c3ccccc3F)ccc21`, 896 s; in that of `Cc1nc(-c2ccc(N3CCN(C(=O)Nc4ccc(F)cc4)CC3)cc2)no1`, 787 s.
As for `Cc1ccc2c(C)nc(Nc3ncc4c(n3)CCCC4=O)nc2c1`, the RP-LC retention time was determined as 598 s.
Consider `O=C(CCC1CCN(S(=O)(=O)c2ccccc2)CC1)N1CCOCC1`, for which the RP-LC retention time turned out to be 741 s.
As to `COc1ccc(-c2nc3cnccn3c2Nc2cccc(Cl)c2C)cc1OC`, the RP-LC retention time was 890 s.
In the case of `CSc1ccc(CNC(=O)C2CCN(c3cncnc3N3CCOCC3)CC2)cc1` it was 637 s; in that of `Cc1ccc(-c2n[nH]c3c2CN(C(=O)c2cnn4cccnc24)CC3)cc1`, 648 s; in that of `CC(C)Sc1nccn2nc(-c3cccs3)cc12`, 1280 s.
The value for `O=C1NCCCn2cc(S(=O)(=O)Nc3cccc(Cl)c3)cc21` was 680 s; that for `CCCn1c(=O)c(-c2ccc(C(=O)NC(C)C)cc2)nc2cccnc21` was 894 s; that for `O=C(Nc1cncc(-c2nc3ccccc3o2)c1)c1cccc(Cl)c1` was 1010 s.
The value for `CCOC(=O)C1CCCN(S(=O)(=O)c2cc(C(=O)N3CCCCC3)n(C)c2C)C1` (centres undefined) was 858 s; that for `CC1Cc2cc(S(=O)(=O)N3CCN(c4ccccn4)CC3)ccc2N1C(=O)C1CC1` (centres undefined) was 668 s; that for `CC(C)c1ccc(-c2csc(NC(=O)c3cccc(Cl)c3)n2)cc1` was 1300 s.
`CCn1c(=O)c2ccn(CC(=O)NCc3cccnc3)c2n(CC)c1=O` had an RP-LC retention time of 568 s.
In the case of `Cc1ccc(NC(=O)C2CCN(S(=O)(=O)c3ccc4c(c3)NC(=O)C(C)O4)CC2)c(Cl)c1` (centres undefined) it was 812 s; in that of `O=C(NCc1ccccc1)C1Oc2ccccc2NC1=O` (centres undefined), 701 s.
On to `CC(C)c1csc(-c2csc(S(=O)(=O)NC3CCCCC3)c2)n1`, for which the RP-LC retention time turned out to be 1180 s.
In the case of `Cc1ccc(-c2nc3cnccn3c2Nc2c(C)cccc2C)cc1` it was 947 s; in that of `COc1ccc(NC(=O)N2CCN(c3cnn4c(C)nnc4c3)CC2)c(OC)c1`, 577 s; in that of `CN(C)C(=O)c1ccc2c(c1)N(CC(=O)Nc1ccccn1)C(=O)C1CCCCN21` (centres undefined), 680 s.
In the case of `Cc1cc(F)ccc1N1C(=O)CN(S(C)(=O)=O)CC1(C)C(=O)NC1CCCCC1` (centres undefined) it was 822 s.
The value for `O=C([C@@H]1C[C@H](Oc2ccccc2)CN1C(=O)COc1ccccc1)N1CCCC1` was 828 s; that for `CC(=O)N1CCN(S(=O)(=O)c2cccc(C(=O)NCc3cccnc3)c2)CC1` was 533 s; that for `CCOc1ccccc1NS(=O)(=O)c1cc(-c2c(C)noc2NC(C)=O)ccc1OC` was 798 s.
Take `Cc1c(-c2cc(NS(=O)(=O)c3ccccc3Cl)n(C)n2)sc2ccc(Cl)cc12`: the RP-LC retention time was 1160 s.
`Cc1cccc(NC(=O)Cn2c(-c3cnccn3)nc(C)c(C)c2=O)c1` yielded an RP-LC retention time of 707 s.
The value for `CCCn1cc(S(=O)(=O)Nc2ccc(OC)cc2)c2cccnc21` was 886 s; that for `Cc1cc(C)c(NC(=O)/C=C/c2ccccc2)c(C)c1` was 898 s.
In the case of `O=C(c1cccs1)N1CCC(c2nnc(-c3ccc(F)cc3)o2)CC1` it was 733 s; in that of `O=C1NCC(=O)N2CC3(CCN(C(=O)C4CCCCC4)CC3)CC12` (centres undefined), 624 s; in that of `O=C(Cn1cccc1-c1nnc(-c2ccccc2)o1)N1CCc2ccccc21`, 1020 s.
In the case of `COc1ccccc1-c1nc(-c2ccc3nnn(C)c3c2)no1` it was 923 s; in that of `COCCNC(=O)N1CCN(c2ncccc2-c2nnc(C(C)C)o2)CC1`, 627 s; in that of `CCCCn1cc(S(=O)(=O)N2CCN(c3cccc(Cl)c3)CC2)c2cccnc21`, 1250 s.
On to `O=C(c1ccoc1)N1CCCC1c1nc(-c2cccc(C(F)(F)F)c2)no1` (centres undefined), for which the RP-LC retention time was found to be 996 s.
In the case of `COc1cccc(Cn2c(=O)c3sccc3n(Cc3nc(-c4ccccc4C)no3)c2=O)c1` it was 1150 s; in that of `Cn1c(=O)c2cc(C(=O)Nc3cccc(Cl)c3)cnc2n(-c2ccccc2)c1=O`, 980 s.
